Experimental data as given in patent publication US20090246293A1 (priority 2008, published 2009).
Like-named read-outs stand apart in the source and are kept apart here.

How the values were obtained:
[1] = test system: Pseudoperonospora cubensis (PSPECU); details: in vivo
[2] = test system: Pseudoperonospora cubensis; assay: Drop-band treatment of cucumber leaves, then spray inoculation with zoospores (Examples 1-3); assay type: in vivo
Experimental: The following examples were carried out on greenhouse and growth chamber experiments on cucumber plants. The cucumber plants were grown from seed in soil-free medium mix (Metro-Mix 360®) and maintained in a glasshouse with supplementary light sources to provide a 16 hour photoperiod at 24-29° C. until the plants had produced 1-2 true leaves. Plants were then trimmed to 1 true leaf, approximately 8 cm across by removing any additional leaves.
Referring below to Table 1, Dithane M45 and Dithane OS are standard commercial formulations. Isovaleraldehyde loaded onto PergoPak was prepared using the following procedure: a mixture of 1.35 g of PergoPak M (polyurea), 0.15 g of isovaleraldehyde and 8 mL of ether was stirred at room temperature for 10 min. The mixture was then concentrated by rotatory evaporation at room temperature under a slight vacuum to provide a solid that was air dried for an hour at room temperature and then bottled. All treatments were prepared by adding the appropriate amount of each treatment to distilled water to give the desired concentration of active ingredient. Dithane® M45 suspensions were initially prepared via serial dilution. Mancozeb/isovaleraldehyde solutions were prepared by adding a prepared isovaleraldehyde solution to a prepared mancozeb suspension. All solutions were vortexed and sonicated prior to treatment application to ensure that they were homogenous.
A sporangial suspension of Pseudoperonospora cubensis was made by collecting leaves with freshly sporulating lesions and washing them in distilled water, which was made up of equal volumes of chilled (4° C.) and tap distilled water (21° C.). The suspension was then left on the lab bench for 2 hours to allow the release of zoospores from the sporangia. After 2 hours the suspension was filtered through filter paper (“Whatman”, 12.5 cm, grade 113V) to remove any remaining sporangia and mycelial fragments. The zoospore concentration was determined and then adjusted to the desired concentration with distilled water.
For each example described below, an area 5 cm wide by 1 cm deep was initially marked on each cucumber leaf by placing a mark in each corner of the area. This was repeated on four separate plants to give four replicates for each treatment. Ten 15 microlitre drops were then applied to each leaf in two 5 drop bands (1 cm between each drop) and allowed to dry overnight. Subsequently a zoospore suspension of Pseudoperonospora cubensis (30,000 zoospores/mL) was sprayed with a hand-atomiser to the entire leaf until run-off. Plants were placed in a dew room (22° C. and 99% RH) for 24 hours then maintained in a growth room with supplementary light sources to provide a 14 hour photoperiod at 18° C. and 70% RH until disease assessment.
Assessment of the effectiveness of the treatment was done by visual infection within the banded area. The banded area was evaluated on a percentage scale (with 0% representing no infection and 100% representing infection of the entire area) after 5-7 days.

[3] = test system: Plasmopara viticola (PLASVI); assay type: in vivo; details: for Reduction in percent disease: aldehyde derivative 100 ppm with mancozeb
[4] = test system: Phytophthora infestans (PHYTIN); assay type: in vivo
Phytophthora infestans = assay type: in vivo; details: for % Disease: potatoes, field, six sprays, rated 8 days after sixth application; for Disease control compared to Dithane alone (in words): combined with Dithane, potato field trial
[5] = test system: Pseudoperonospora cubensis (PSPECU); assay: Droplet application on cucumber leaf, growth chamber (Examples 5a-d); assay type: in vivo
Experimental: Examples 5a through 5d were conducted in growth chambers on cucumber plants. Cucumbers (Cucumis sativus cv Bush Pickle Hybrid #901261) were grown from seed in 5 cm by 5 cm pots containing MetroMix™ growth medium (Scotts, Marysville, Ohio) and maintained in a glasshouse with supplementary light sources to provide a 14 hour photoperiod at 24-29° C. until the plants were in the 2-3 true leaf stage of growth and the oldest leaf was fully expanded.
For examples 5a through 5d, described below, samples of mancozeb formulated as Dithane DG NT were dissolved in water to form a ½×dilution series. Mancozeb rates were 400, 200, 100 and 50 ppm. Samples of various aldehydes, amino acids, carboxylic acids, amines and alcohols were dissolved in acetone and then mixed with aqueous solutions of mancozeb. Attractant rates in the dilute solutions were 100, 200, 500 or 1000 ppm, depending on the experiment.
Mixtures of attractant or attractant derivative plus mancozeb or mancozeb alone were applied to cucumber as a row of 5 or 7.5 ul droplets using a multi-channel pipetting device. Five droplets spaced 1 cm apart were placed along the mid-rib of the expanded cucumber leaf with the first droplet being positioned at least 1-cm from the leaf apex. Each treatment was replicated three or four times, depending on the experiment. Two to three hours after applying the treatments when droplets had dried, plants were inoculated with a suspension of sporangia of a Pseudoperonospora cubensis (PSPECU) and incubated as described in the methods for sprayed tests. When symptoms were well developed in untreated check plants, the experiment was assessed visually using a template 2 cm wide and 7 cm long with the long axis centered on the mid-rib of the treated leaf.
Reduction in percent disease was calculated by subtracting percent disease on plants receiving a mixture of mancozeb plus the specified test substance from percent disease on plants receiving mancozeb alone. The results for examples 5a-5d are shown below in Tables 7-10; the reduction in percent disease was indicated as follows: […]

[6] = Dithane 600 g ai/ha plus 300 ppm compound
[7] = substance alone 500 ppm, untreated check 95
[8] = fungicide with Formulation I at 100 ppm, Table 18
[9] = aldehyde derivative 500 ppm with mancozeb, Table 16

What does the source list for `N#Cc1c(Cl)c(Cl)c(Cl)c(C#N)c1Cl` [Chlorothalonil, chlorothalonil]?
Reduction in percent disease, Formul. I [1]: x (key: x: 0-20% reduction in percent disease; xx: 21-35% reduction in percent disease; xxx: 36-50% reduction in percent disease; xxxx: >50% reduction in percent disease); Percent infection of Pseudoperonospora cubensis on cucumbers ([2]; chlorothalonil 5 ppm alone, 7 days after application): 24%; Percent infection of Pseudoperonospora cubensis on cucumbers ([2]; chlorothalonil 20 ppm alone, 7 days after application): 9%; Percent infection of Pseudoperonospora cubensis on cucumbers ([2]; chlorothalonil 100 ppm alone, 7 days after application): 0%; Reduction in percent disease, Formul. I ([3]; PLASVI, fungicide with Formulation I at 100 ppm of attractant derivative, Table 22): x (0-20% reduction in percent disease); Reduction in percent disease, Formul. I ([4]; PHYTIN, fungicide with Formulation I at 100 ppm of attractant derivative, Table 22): x (0-20% reduction in percent disease)

`CCCC=NNC(=O)Nc1ccccc1` [Compound A] was tested. Which “Reduction in percent disease” value [1] did it give?
The value was “xx (key: x: 0-20% reduction in percent disease; xx: 21-35% reduction in percent disease; xxx: 36-50% reduction in percent disease; xxxx: >50% reduction in percent disease)”.

And the “% Disease” value (Phytophthora infestans; 300 ppm compound alone)?
Its value is 98%.

What about the “% Disease” value (Phytophthora infestans; [6]) of the same molecule?
Its value is 20%.

What about the “Disease control compared to Dithane alone (in words)” value (Phytophthora infestans) of the same molecule?
Its value is “significantly improve disease control”.

And the “Reduction in percent disease” value ([3]; PLASVI, Table 13)?
Its value is “xx (21-35% reduction in percent disease)”.

Which “Percent infection of Pseudoperonospora cubensis on cucumbers” value (“Percent infection” below) ([2]; isovaleraldehyde bisulfite adduct, sodium 100 ppm alone, 7 days) does the source give for `CC(C)CC(O)S(=O)(=O)[O-].[Na+]` (stereo not shown) [Isovaleraldehyde bisulfite adduct, sodium] here?
The value was 45%.

For `CC(C)CC=O` [Isovaleraldehyde, isovaleraldehyde], which “Percent infection” value ([2]; isovaleraldehyde 50 ppm (sorbed to PergoPak M) alone, 5 days after application) is on record?
The value was 41%.

And the “Percent infection” value ([2]; isovaleraldehyde 100 ppm (sorbed to PergoPak M) alone, 5 days after application)?
Its value is 34%.

And the “Percent infection” value ([2]; isovaleraldehyde 100 ppm alone, 7 days after application)?
The value was 41%.

What about the “Percent infection” value ([2]; isovaleraldehyde 500 ppm (sorbed to PergoPak M) alone, 5 days after application) of the same molecule?
Its value is 44%.

What about the “Percent infection” value ([2]; pure isovaleraldehyde 50 ppm alone, 6 days after application) of the same molecule?
The value was 51%.

And the “Percent infection” value ([2]; pure isovaleraldehyde 100 ppm alone, 6 days after application)?
The value was 44%.

What about the “Reduction in percent disease PLASVI” value ([3]; substance 500 ppm with mancozeb 6.25 ppm (Dithane DGNT), foliar spray, inoculated 2 to 3 hours after treatment) of the same molecule?
Its value is “xxx (36-50% reduction in percent disease)”.

And the “% disease at 500 ppm of substance alone PLASVI” value [3, 7]?
The value was 93%.

What about the “Reduction in percent disease PHYTIN” value ([4]; substance 500 ppm with mancozeb 25 ppm (Dithane DGNT), foliar spray, inoculated 2 to 3 hours after treatment) of the same molecule?
The value was “xxx (36-50% reduction in percent disease)”.

What about the “% disease at 500 ppm of substance alone PHYTIN” value [4, 7] of the same molecule?
Its value is 77%.

What about the “Reduction in % Disease” value ([5]; substance 100 ppm with mancozeb 200 ppm vs mancozeb alone, Table 9) of the same molecule?
Its value is “xx (21-35% reduction in percent disease)”.

And the “Reduction in % Disease” value ([5]; substance 200 ppm with mancozeb 50 ppm vs mancozeb alone, cucumber)?
The value was “xxxx (>50% reduction in percent disease)”.

And the “Reduction in % Disease” value ([5]; substance 500 ppm with mancozeb 200 ppm vs mancozeb alone, Table 8)?
Its value is “xx (21-35% reduction in percent disease)”.

And the “Reduction in % Disease” value ([5]; substance 1000 ppm with mancozeb 50 ppm vs mancozeb alone, cucumber)?
Its value is “xxx (36-50% reduction in percent disease)”.

What about the “% disease at 100 ppm of substance alone” value ([5]; substance alone 100 ppm, untreated check 92%, Table 9) of the same molecule?
The value was 86%.

What about the “% disease at 500 ppm of substance alone” value ([5]; substance alone 500 ppm, untreated check 91%) of the same molecule?
Its value is 93%.

And the “% disease at 1000 ppm of substance alone” value ([5]; substance alone 1000 ppm, untreated check 100%)?
Its value is 100%.

What does the source list for `CCCOC(=O)NCCCN(C)C` [Propamocarb]?
Reduction in percent disease PSPECU [1]: x (key: x: 0-20% reduction in percent disease; xx: 21-35% reduction in percent disease; xxx: 36-50% reduction in percent disease; xxxx: >50% reduction in percent disease); Reduction in percent disease PLASVI [3, 8]: x (0-20% reduction in percent disease); Reduction in percent disease PHYTIN [4, 8]: xx (21-35% reduction in percent disease)

Which results are given for `CCC(C)(NC(=O)c1cc(Cl)c(C)c(Cl)c1)C(=O)CCl` (stereo not shown) [Zoxamide, zoxamide]?
effect of Formulation I on the effectiveness of fungicides, PSPECU [1]: x (key: x: 0-20% reduction in percent disease; xx: 21-35% reduction in percent disease; xxx: 36-50% reduction in percent disease; xxxx: >50% reduction in percent disease); Percent infection of Pseudoperonospora cubensis on cucumbers ([2]; zoxamide 1 ppm alone, 7 days after application): 28%; Percent infection of Pseudoperonospora cubensis on cucumbers ([2]; zoxamide 5 ppm alone, 7 days after application): 16%; Percent infection of Pseudoperonospora cubensis on cucumbers ([2]; zoxamide 25 ppm alone, 7 days after application): 16%; effect of Formulation I on the effectiveness of fungicides, PHYTIN ([4]; fungicide with Formulation I at 100 ppm, Table 20): xx (21-35% reduction in percent disease)

How did the “Reduction in percent disease PSPECU” value [1] turn out when “condensation product of urea and 2- methylbutyraldehyde [Compound Q]” was run?
The value was “x (key: x: 0-20% reduction in percent disease; xx: 21-35% reduction in percent disease; xxx: 36-50% reduction in percent disease; xxxx: >50% reduction in percent disease)”.

What about the “Reduction in percent disease PLASVI” value [3, 9] of the same molecule?
The value was “x (0-20% reduction in percent disease)”.

And the “Reduction in percent disease PHYTIN” value [4, 9]?
The value was “x (0-20% reduction in percent disease)”.

With “condensation product of urea and 3,3- dimethylbutyraldehyde [Compound R]” as the molecule, how does the “Reduction in percent disease PSPECU” value [1] read?
Its value is “x (key: x: 0-20% reduction in percent disease; xx: 21-35% reduction in percent disease; xxx: 36-50% reduction in percent disease; xxxx: >50% reduction in percent disease)”.

And the “Reduction in percent disease PLASVI” value [3, 9]?
The value was “x (0-20% reduction in percent disease)”.

What about the “Reduction in percent disease PHYTIN” value [4, 9] of the same molecule?
The value was “xx (21-35% reduction in percent disease)”.

Which “Reduction in percent disease” value [1] does the source give for “condensation product of urea and isovalderaldehyde [Compound B]” here?
The value was “x (key: x: 0-20% reduction in percent disease; xx: 21-35% reduction in percent disease; xxx: 36-50% reduction in percent disease; xxxx: >50% reduction in percent disease)”.

What about the “% Disease” value (Phytophthora infestans; 300 ppm compound alone) of the same molecule?
Its value is 98%.

And the “% Disease” value (Phytophthora infestans; [6])?
The value was 9%.

And the “Disease control compared to Dithane alone (in words)” value (Phytophthora infestans)?
Its value is “significantly improve disease control”.

And the “Reduction in percent disease” value ([3]; PLASVI, Table 13)?
Its value is “xx (21-35% reduction in percent disease)”.

What about the “Reduction in percent disease” value ([3]; PLASVI, Table 15) of the same molecule?
Its value is “xx (21-35% reduction in percent disease)”.
